Measurements reported in publication PMC4959829 (Biochemical Pharmacology, 2016).
pIC50: −log10 of the molar value. Read-outs that look alike come from different tables or passages of the source.

Key:
hERG (WT) [1] = conditions: cited from earlier work
hERG (WT) [2] = assay: Literature IhERG block, WT hERG in Xenopus oocytes; format: cell-based; conditions: human, Xenopus oocytes expressing WT hERG; Oocyte, room temperature; estimated from single dose data with Hill equation, h = 1; read-out: WT IC50 (estimated)
F656A hERG = F656A hERG (Homo sapiens, UniProt Q12809, F656A); conditions: cited from earlier work
Sequence of F656A hERG (Q12809 whole entry F656A): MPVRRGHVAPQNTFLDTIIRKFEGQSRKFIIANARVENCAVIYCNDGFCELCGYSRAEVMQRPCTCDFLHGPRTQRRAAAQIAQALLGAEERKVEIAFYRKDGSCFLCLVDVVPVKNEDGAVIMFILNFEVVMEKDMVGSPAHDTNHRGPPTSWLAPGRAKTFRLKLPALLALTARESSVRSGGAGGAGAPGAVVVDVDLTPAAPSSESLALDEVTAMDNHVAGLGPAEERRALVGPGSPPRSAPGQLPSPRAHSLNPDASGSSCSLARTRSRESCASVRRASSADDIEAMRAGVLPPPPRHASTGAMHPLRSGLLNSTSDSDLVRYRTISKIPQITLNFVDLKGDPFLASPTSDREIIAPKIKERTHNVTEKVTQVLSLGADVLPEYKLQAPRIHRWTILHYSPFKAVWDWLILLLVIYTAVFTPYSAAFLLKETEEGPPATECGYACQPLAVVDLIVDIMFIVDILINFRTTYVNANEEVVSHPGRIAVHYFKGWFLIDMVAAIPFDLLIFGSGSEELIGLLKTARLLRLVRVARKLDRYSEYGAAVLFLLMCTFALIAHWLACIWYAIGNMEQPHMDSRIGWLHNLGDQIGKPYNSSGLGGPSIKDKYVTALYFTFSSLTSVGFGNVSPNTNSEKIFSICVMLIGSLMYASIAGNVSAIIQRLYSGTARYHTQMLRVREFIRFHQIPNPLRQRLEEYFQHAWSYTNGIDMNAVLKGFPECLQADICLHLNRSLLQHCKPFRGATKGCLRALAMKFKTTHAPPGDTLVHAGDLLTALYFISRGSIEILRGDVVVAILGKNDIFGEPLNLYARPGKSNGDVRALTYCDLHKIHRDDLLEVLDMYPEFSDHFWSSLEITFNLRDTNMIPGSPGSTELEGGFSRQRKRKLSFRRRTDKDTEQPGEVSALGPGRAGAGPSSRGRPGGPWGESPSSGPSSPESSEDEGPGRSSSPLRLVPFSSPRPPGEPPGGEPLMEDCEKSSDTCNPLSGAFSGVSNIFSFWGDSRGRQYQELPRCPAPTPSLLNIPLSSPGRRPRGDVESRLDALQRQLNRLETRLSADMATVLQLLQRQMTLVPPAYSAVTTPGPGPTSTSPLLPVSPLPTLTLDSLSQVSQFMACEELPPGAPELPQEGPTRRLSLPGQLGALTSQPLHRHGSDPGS

hERG (WT) [3] = conditions: cited from earlier work; remark: listed apart in the source
Y652A hERG = Y652A hERG (Homo sapiens, UniProt Q12809, Y652A); conditions: cited from earlier work
Sequence of Y652A hERG (Q12809 whole entry Y652A): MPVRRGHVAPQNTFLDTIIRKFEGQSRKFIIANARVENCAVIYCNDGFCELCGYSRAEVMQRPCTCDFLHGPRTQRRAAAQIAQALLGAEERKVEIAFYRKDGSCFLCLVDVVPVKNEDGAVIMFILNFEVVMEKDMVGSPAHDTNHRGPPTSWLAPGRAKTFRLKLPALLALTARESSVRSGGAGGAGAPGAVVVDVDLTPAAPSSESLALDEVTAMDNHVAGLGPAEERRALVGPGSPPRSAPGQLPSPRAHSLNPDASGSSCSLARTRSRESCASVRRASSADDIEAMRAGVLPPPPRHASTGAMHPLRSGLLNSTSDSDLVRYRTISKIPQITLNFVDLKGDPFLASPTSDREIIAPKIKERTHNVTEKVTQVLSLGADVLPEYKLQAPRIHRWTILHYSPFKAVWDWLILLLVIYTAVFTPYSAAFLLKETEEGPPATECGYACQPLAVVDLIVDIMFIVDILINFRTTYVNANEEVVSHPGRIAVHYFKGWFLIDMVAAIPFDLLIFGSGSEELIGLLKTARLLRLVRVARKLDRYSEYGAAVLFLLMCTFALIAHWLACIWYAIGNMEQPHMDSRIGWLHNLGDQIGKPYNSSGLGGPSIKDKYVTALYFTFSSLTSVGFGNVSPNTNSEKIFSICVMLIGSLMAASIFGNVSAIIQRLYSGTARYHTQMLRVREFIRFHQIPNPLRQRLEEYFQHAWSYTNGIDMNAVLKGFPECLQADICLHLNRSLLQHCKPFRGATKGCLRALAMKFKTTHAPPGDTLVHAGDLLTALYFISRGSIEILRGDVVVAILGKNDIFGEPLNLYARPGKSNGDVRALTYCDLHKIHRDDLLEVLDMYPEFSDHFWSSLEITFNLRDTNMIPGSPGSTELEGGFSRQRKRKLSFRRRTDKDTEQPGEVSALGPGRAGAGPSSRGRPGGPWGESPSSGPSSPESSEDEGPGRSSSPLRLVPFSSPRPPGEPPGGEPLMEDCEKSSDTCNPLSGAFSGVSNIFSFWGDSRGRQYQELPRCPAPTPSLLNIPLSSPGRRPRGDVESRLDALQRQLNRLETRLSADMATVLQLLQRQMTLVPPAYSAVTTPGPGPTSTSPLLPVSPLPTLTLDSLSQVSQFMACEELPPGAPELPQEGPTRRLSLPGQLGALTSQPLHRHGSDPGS

[4] = read-out: WT IC50, Oocyte, room temperature

In the case of `CCCCCCC[N+](CC)(CC)CCCCc1ccc(Cl)cc1` [Clofilium], the pIC50 (hERG (WT) [1]; [4]) is listed as 7.52.
For `O=C1Cc2cc(CCN3CCN(c4nsc5ccccc45)CC3)c(Cl)cc2N1` [Ziprasidone], the “IC50 fold increase (mutant IC50/WT IC50), F656A” value (F656A hERG) is given as 357 fold, the pIC50 (hERG (WT) [3]; HEK293, 37 °C, read-out: WT IC50) is given as 6.92 and the “IC50 fold increase (mutant IC50/WT IC50), Y652A” value (Y652A hERG) is given as 140 fold. For the same molecule, the pIC50 (hERG (WT) [1]) was 5.55.
In the case of `CCCCc1oc2ccccc2c1C(=O)c1cc(I)c(OCCNCC)c(I)c1` [desethyl-amiodarone], the pIC50 (hERG (WT) [3]; metabolite DEA, read-out: IhERG IC50) is given as roughly 6.80.
